Measured values taken from patent publication US12077503B2, “Substituted cyclic amides and their use as herbicides” (FMC CORPORATION, priority 2015, dated 2024).

How the values were obtained:
Format in all cases: in vivo
[1] = tested on: giant foxtail (Setaria faberi); experiment: Test G Post-Emergence Protocol; conditions: Setaria faberi, post-emergence, 312 h, read-out: Foxtail, Giant damage rating; for pest or weed control at 15.625 g/ha: 15.625 g ai/ha, evaluated after 13 days (100=total damage to plant; 0=no damage to plant); for pest or weed control at 62.5 g/ha: 62.5 g ai/ha; for pest or weed control at 62.5 g/ha / pest or weed control at 250 g/ha: evaluated after 13 days, 100=total damage to plant, 0=no damage to plant; for pest or weed control at 250 g/ha: 250 g ai/ha
Outline: (§1)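 Values are percent visual injury at 13 days after treatment (0 none, 100 total). Treatment was a post-emergence spray at 15.625, 62.5 or 250 g/ha on 8-day-old pot plants kept at 24/16 °C.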

[2] = tested on: velvetleaf (Abutilon theophrasti); experiment: Test G Post-Emergence Protocol; conditions: Abutilon theophrasti, post-emergence, 312 h, read-out: Velvetleaf damage rating; for pest or weed control at 15.625 g/ha: 15.625 g ai/ha, evaluated after 13 days (100=total damage to plant; 0=no damage to plant); for pest or weed control at 62.5 g/ha: 62.5 g ai/ha; for pest or weed control at 62.5 g/ha / pest or weed control at 250 g/ha: evaluated after 13 days, 100=total damage to plant, 0=no damage to plant; for pest or weed control at 250 g/ha: 250 g ai/ha
Outline: as §1

[3] = tested on: redroot pigweed (Amaranthus retroflexus); experiment: Test G Post-Emergence Protocol; conditions: Amaranthus retroflexus, post-emergence, 312 h, read-out: Pigweed, Redroot damage rating; for pest or weed control at 15.625 g/ha: 15.625 g ai/ha, evaluated after 13 days (100=total damage to plant; 0=no damage to plant); for pest or weed control at 62.5 g/ha: 62.5 g ai/ha; for pest or weed control at 62.5 g/ha / pest or weed control at 250 g/ha: evaluated after 13 days, 100=total damage to plant, 0=no damage to plant; for pest or weed control at 250 g/ha: 250 g ai/ha
Outline: as §1

[4] = tested on: ivy-leaved morning glory (Ipomoea hederacea); experiment: Test G Post-Emergence Protocol; conditions: Ipomoea, post-emergence, 312 h, read-out: Morningglory, Ivy-leaved damage rating; for pest or weed control at 15.625 g/ha: 15.625 g ai/ha, evaluated after 13 days (100=total damage to plant; 0=no damage to plant); for pest or weed control at 62.5 g/ha: 62.5 g ai/ha; for pest or weed control at 62.5 g/ha / pest or weed control at 250 g/ha: evaluated after 13 days, 100=total damage to plant, 0=no damage to plant; for pest or weed control at 250 g/ha: 250 g ai/ha
Outline: as §1

corn (Zea mays) [5] = experiment: Test G Post-Emergence Protocol; conditions: Zea mays, post-emergence, 312 h, read-out: Corn damage rating; for plant injury at 15.625 g/ha: 15.625 g ai/ha, evaluated after 13 days (100=total damage to plant; 0=no damage to plant); for plant injury at 62.5 g/ha: 62.5 g ai/ha; for plant injury at 62.5 g/ha / plant injury at 250 g/ha: evaluated after 13 days, 100=total damage to plant, 0=no damage to plant; for plant injury at 250 g/ha: 250 g ai/ha
Outline: as §1

[6] = tested on: barnyardgrass (Echinochloa crus-galli); experiment: Test G Post-Emergence Protocol; conditions: Echinochloa crus-galli, post-emergence, 312 h, read-out: Barnyardgrass damage rating; for pest or weed control at 15.625 g/ha: 15.625 g ai/ha, evaluated after 13 days (100=total damage to plant; 0=no damage to plant); for pest or weed control at 62.5 g/ha: 62.5 g ai/ha; for pest or weed control at 62.5 g/ha / pest or weed control at 250 g/ha: evaluated after 13 days, 100=total damage to plant, 0=no damage to plant; for pest or weed control at 250 g/ha: 250 g ai/ha
Outline: as §1

[7] = tested on: giant foxtail (Setaria faberi); experiment: Test G Pre-Emergence Protocol; conditions: Setaria faberi, pre-emergence, 312 h, evaluated after 13 days; for pest or weed control at 15.625 g/ha: 15.625 g ai/ha; for pest or weed control at 15.625 g/ha / pest or weed control at 250 g/ha: read-out: Foxtail, Giant damage rating (100=total damage to plant; 0=no damage to plant); for pest or weed control at 62.5 g/ha: 62.5 g ai/ha, 100=total damage to plant, 0=no damage to plant, read-out: Foxtail, Giant damage rating; for pest or weed control at 250 g/ha: 250 g ai/ha
Outline: (§2)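 Glasshouse pre-emergence test: soil-sown seeds, sprayed after 1 d at 15.625, 62.5 or 250 g/ha. Conditions 24/16° C day/night, 14 h light, 65% humidity, watering twice daily. Rating 13 d post-spray (100 = total damage).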

[8] = tested on: velvetleaf (Abutilon theophrasti); experiment: Test G Pre-Emergence Protocol; conditions: Abutilon theophrasti, pre-emergence, 312 h, evaluated after 13 days; for pest or weed control at 15.625 g/ha: 15.625 g ai/ha; for pest or weed control at 15.625 g/ha / pest or weed control at 250 g/ha: read-out: Velvetleaf damage rating (100=total damage to plant; 0=no damage to plant); for pest or weed control at 62.5 g/ha: 62.5 g ai/ha, 100=total damage to plant, 0=no damage to plant, read-out: Velvetleaf damage rating; for pest or weed control at 250 g/ha: 250 g ai/ha
Outline: as §2

[9] = tested on: redroot pigweed (Amaranthus retroflexus); experiment: Test G Pre-Emergence Protocol; conditions: Amaranthus retroflexus, pre-emergence, 312 h, evaluated after 13 days; for pest or weed control at 15.625 g/ha: 15.625 g ai/ha; for pest or weed control at 15.625 g/ha / pest or weed control at 250 g/ha: read-out: Pigweed, Redroot damage rating (100=total damage to plant; 0=no damage to plant); for pest or weed control at 62.5 g/ha: 62.5 g ai/ha, 100=total damage to plant, 0=no damage to plant, read-out: Pigweed, Redroot damage rating; for pest or weed control at 250 g/ha: 250 g ai/ha
Outline: as §2

[10] = tested on: ivy-leaved morning glory (Ipomoea hederacea); experiment: Test G Pre-Emergence Protocol; conditions: Ipomoea, pre-emergence, 312 h, evaluated after 13 days; for pest or weed control at 15.625 g/ha: 15.625 g ai/ha; for pest or weed control at 15.625 g/ha / pest or weed control at 250 g/ha: read-out: Morningglory, Ivy-leaved damage rating (100=total damage to plant; 0=no damage to plant); for pest or weed control at 62.5 g/ha: 62.5 g ai/ha, 100=total damage to plant, 0=no damage to plant, read-out: Morningglory, Ivy-leaved damage rating; for pest or weed control at 250 g/ha: 250 g ai/ha
Outline: as §2

corn (Zea mays) [11] = experiment: Test G Pre-Emergence Protocol; conditions: Zea mays, pre-emergence, 312 h, evaluated after 13 days; for plant injury at 15.625 g/ha: 15.625 g ai/ha; for plant injury at 15.625 g/ha / plant injury at 250 g/ha: read-out: Corn damage rating (100=total damage to plant; 0=no damage to plant); for plant injury at 62.5 g/ha: 62.5 g ai/ha, 100=total damage to plant, 0=no damage to plant, read-out: Corn damage rating; for plant injury at 250 g/ha: 250 g ai/ha
Outline: as §2

[12] = tested on: barnyardgrass (Echinochloa crus-galli); experiment: Test G Pre-Emergence Protocol; conditions: Echinochloa crus-galli, pre-emergence, 312 h, evaluated after 13 days; for pest or weed control at 15.625 g/ha: 15.625 g ai/ha; for pest or weed control at 15.625 g/ha / pest or weed control at 250 g/ha: read-out: Barnyardgrass damage rating (100=total damage to plant; 0=no damage to plant); for pest or weed control at 62.5 g/ha: 62.5 g ai/ha, 100=total damage to plant, 0=no damage to plant, read-out: Barnyardgrass damage rating; for pest or weed control at 250 g/ha: 250 g ai/ha
Outline: as §2

Structure (SMILES) | pest or weed control at 15.625 g/ha [1] | pest or weed control at 62.5 g/ha [1] | pest or weed control at 250 g/ha [1] | pest or weed control at 15.625 g/ha [2] | pest or weed control at 62.5 g/ha [2] | pest or weed control at 250 g/ha [2] | pest or weed control at 15.625 g/ha [3] | pest or weed control at 62.5 g/ha [3] | pest or weed control at 250 g/ha [3] | pest or weed control at 15.625 g/ha [4] | pest or weed control at 62.5 g/ha [4] | pest or weed control at 250 g/ha [4] | plant injury at 15.625 g/ha (corn (Zea mays) [5]) | plant injury at 62.5 g/ha (corn (Zea mays) [5]) | plant injury at 250 g/ha (corn (Zea mays) [5]) | pest or weed control at 15.625 g/ha [6] | pest or weed control at 62.5 g/ha [6] | pest or weed control at 250 g/ha [6] | pest or weed control at 15.625 g/ha [7] | pest or weed control at 62.5 g/ha [7] | further results
Cc1nc(Cl)ccc1NC(=O)[C@H]1C(=O)N(C)C[C@@H]1c1ccc(C(F)(F)F)cc1 (racemic) [Compound 1825] | 0% | 0% | 50% | 0% | 0% | 20% | 0% | 0% | 10% | 0% | 0% | 20% | 0% | 0% | 10% | 0% | 0% | 0% | 0% | 20% | pest or weed control at 250 g/ha [7]: 70%; pest or weed control at 15.625 g/ha [8]: 0%; pest or weed control at 62.5 g/ha [8]: 0%; pest or weed control at 250 g/ha [8]: 0%; pest or weed control at 15.625 g/ha [9]: 0%; pest or weed control at 62.5 g/ha [9]: 0%; pest or weed control at 250 g/ha [9]: 0%; pest or weed control at 15.625 g/ha [10]: 0%; pest or weed control at 62.5 g/ha [10]: 0%; pest or weed control at 250 g/ha [10]: 0%; plant injury at 15.625 g/ha (corn (Zea mays) [11]): 0%; plant injury at 62.5 g/ha (corn (Zea mays) [11]): 0%; plant injury at 250 g/ha (corn (Zea mays) [11]): 0%; pest or weed control at 15.625 g/ha [12]: 0%; pest or weed control at 62.5 g/ha [12]: 0%; pest or weed control at 250 g/ha [12]: 0%
CN1C[C@H](c2ccnc(C(C)(C)C)n2)[C@@H](C(=O)Nc2cccc(F)c2F)C1=O (racemic) [Compound 1769] | 0% | 10% | 60% | 0% | 0% | 0% | 0% | 0% | 0% | 0% | 0% | 20% | 0% | 0% | 10% | 0% | 0% | 50% | 20% | 40% | pest or weed control at 250 g/ha [7]: 90%; pest or weed control at 15.625 g/ha [8]: 0%; pest or weed control at 62.5 g/ha [8]: 0%; pest or weed control at 250 g/ha [8]: 0%; pest or weed control at 15.625 g/ha [9]: 0%; pest or weed control at 62.5 g/ha [9]: 0%; pest or weed control at 250 g/ha [9]: 0%; pest or weed control at 15.625 g/ha [10]: 0%; pest or weed control at 62.5 g/ha [10]: 0%; pest or weed control at 250 g/ha [10]: 0%; plant injury at 15.625 g/ha (corn (Zea mays) [11]): 0%; plant injury at 62.5 g/ha (corn (Zea mays) [11]): 0%; plant injury at 250 g/ha (corn (Zea mays) [11]): 0%; pest or weed control at 15.625 g/ha [12]: 0%; pest or weed control at 62.5 g/ha [12]: 20%; pest or weed control at 250 g/ha [12]: 70%
CN1C[C@H](c2ccc(C(F)(F)F)cc2)[C@@H](C(=O)Nc2cnccc2C#N)C1=O (racemic) [Compound 1760] | 0% | 0% | 20% | 0% | 0% | 10% | 0% | 0% | 0% | 0% | 0% | 20% | 0% | 0% | 10% | 0% | 0% | 10% | 0% | 0% | pest or weed control at 250 g/ha [7]: 30%; pest or weed control at 15.625 g/ha [8]: 0%; pest or weed control at 62.5 g/ha [8]: 0%; pest or weed control at 250 g/ha [8]: 0%; pest or weed control at 15.625 g/ha [9]: 0%; pest or weed control at 62.5 g/ha [9]: 0%; pest or weed control at 250 g/ha [9]: 0%; pest or weed control at 15.625 g/ha [10]: 0%; pest or weed control at 62.5 g/ha [10]: 0%; pest or weed control at 250 g/ha [10]: 0%; plant injury at 15.625 g/ha (corn (Zea mays) [11]): 0%; plant injury at 62.5 g/ha (corn (Zea mays) [11]): 0%; plant injury at 250 g/ha (corn (Zea mays) [11]): 0%; pest or weed control at 15.625 g/ha [12]: 0%; pest or weed control at 62.5 g/ha [12]: 0%; pest or weed control at 250 g/ha [12]: 0%
